Assay results: patent publication US20060235222A1, “Indole-derivative modulators of steroid hormone nuclear receptors” (ELI LILLY AND COMPANY, priority 2003, published 2006)

How the values were obtained:
human MR = biological target: T1, human MR (Homo sapiens, UniProt P08235); experiment: Mineralocorticoid Receptor Binding Assay (Method 1), [3H]-aldosterone competition; details: 0.5 nM [3H]-aldosterone, human MR expressed in Sf9 cells
T1 construct: The full length human MR gene is cloned from a human kidney or human brain cDNA library; inferred from own knowledge of the pAcHLT vector (N); made in house; host or cells: Sf9 insect cells (baculovirus)
T1 sequence (P08235 1-984): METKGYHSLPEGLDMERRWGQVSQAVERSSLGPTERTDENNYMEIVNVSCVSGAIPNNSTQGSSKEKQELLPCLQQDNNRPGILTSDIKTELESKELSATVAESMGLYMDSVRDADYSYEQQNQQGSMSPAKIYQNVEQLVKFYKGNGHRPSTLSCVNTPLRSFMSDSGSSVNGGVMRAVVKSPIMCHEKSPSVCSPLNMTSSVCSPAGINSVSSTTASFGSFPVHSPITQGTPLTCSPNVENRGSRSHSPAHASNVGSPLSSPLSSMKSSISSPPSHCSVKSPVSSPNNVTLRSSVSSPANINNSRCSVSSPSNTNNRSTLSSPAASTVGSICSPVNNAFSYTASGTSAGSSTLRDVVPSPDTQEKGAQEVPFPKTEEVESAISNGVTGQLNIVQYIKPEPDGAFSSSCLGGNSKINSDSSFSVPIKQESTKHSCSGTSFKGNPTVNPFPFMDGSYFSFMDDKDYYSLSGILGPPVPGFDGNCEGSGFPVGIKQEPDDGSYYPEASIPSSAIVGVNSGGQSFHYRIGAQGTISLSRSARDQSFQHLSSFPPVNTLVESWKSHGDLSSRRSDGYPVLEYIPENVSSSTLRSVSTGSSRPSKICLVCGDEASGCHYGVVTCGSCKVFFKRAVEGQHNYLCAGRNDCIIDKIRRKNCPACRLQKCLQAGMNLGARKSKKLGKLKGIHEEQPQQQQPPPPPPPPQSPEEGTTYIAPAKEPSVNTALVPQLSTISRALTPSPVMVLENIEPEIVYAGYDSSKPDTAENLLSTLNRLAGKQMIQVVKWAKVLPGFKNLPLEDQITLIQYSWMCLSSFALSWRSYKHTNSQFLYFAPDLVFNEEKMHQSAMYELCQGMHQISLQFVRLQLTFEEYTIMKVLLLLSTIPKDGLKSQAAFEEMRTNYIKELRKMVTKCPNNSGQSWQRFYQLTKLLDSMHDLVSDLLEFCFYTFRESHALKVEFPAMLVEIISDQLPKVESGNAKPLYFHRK
Experimental: Mineralocorticoid Receptor Binding Assay (Method 1):
The full length human MR gene is cloned from a human kidney or human brain cDNA library. […] The PCR reaction is performed in a final volume of 50 μl containing about 1 μl of a 50× stock solution of polymerase; about 1 μl of a 50× stock solution of dNTP; about 5 μl of an appropriate PCR buffer; about 1 μl of each primer; about 5 μl of a H. kidney or H. brain cDNA library; and about 36 μl of water. The reaction is allowed to denature for about 30 seconds at 95 degrees Celsius, anneal for about 30 seconds at 55 degrees Celsius, and extend for about 5 minutes at 72 degrees Celsius, the sequence being repeated for a total of about 35 cycles. […] To extract the cDNA product from the agarose gel, the QIAEX II Gel Extraction protocol (QIAGEN, Inc.) is employed according to the manufacturer's instructions. Following extraction, the MR cDNA is cloned into an appropriate cloning vector (Zero Blunt TOPO PCR Cloning Kit (Invitrogen, Inc.) and a pAcHLT-baculovirus transfer vector (B.D./Pharminogen), then expressed in SF9 insect cells, essentially according to manufacturer's instructions. Sf9 cells are grown at a scale where gram quantity cell pellets are obtained for subsequent use in the MR binding assay. Harvested cell pellets are lysed by repeated freeze-thaw cycles (about 4) in a suitable lysis buffer then centrifuged at about 1×10^3 G (with the supernatant being saved for future assays).
MR binding assays are performed in a final total volume of about 250 μl containing about 20-25 μg of protein and 0.5 nM of [^3H]-aldosterone plus varying concentrations of test compound or vehicle. The assay binding buffer consists of 30 mM sodium molybdate, 30 mM of TRIS-HCl, 5 mM sodium phosphate, 5 mM sodium pyrophosphate, and about 10% glycerol, pH=7.5.
Incubations are carried out at 4 degrees Celsius with shaking for about 16 hours. 200 μl aliquots of each incubation are filtered onto Millipore HA 0.45 micron 96-well filter plates, pre-moistened with cold 30 mM TRIS-HCl. The filter plates are suctioned dry with vacuum and immediately washed 3× with cold 30 mM TRIS-HCl. The plates are then punched out and the amount of receptor-ligand complex is determined by liquid scintillation counting using 4 ml of Ready Protein Plus™ liquid scintillation cocktail.

glucocorticoid receptor = biological target: T2, glucocorticoid receptor (Homo sapiens, UniProt P04150); experiment: Glucocorticoid Receptor Binding Assay (Method 1), [3H]-dexamethasone competition, A549 cell extract; details: 1.86 nM [3H]-dexamethasone, read-out: GR Ki (nM) Method 1
T2 construct: containing 50-200 ug of A549 cell extract and 1.86 nM; host or cells: A549 human lung epithelial cells
T2 sequence (P04150 1-777): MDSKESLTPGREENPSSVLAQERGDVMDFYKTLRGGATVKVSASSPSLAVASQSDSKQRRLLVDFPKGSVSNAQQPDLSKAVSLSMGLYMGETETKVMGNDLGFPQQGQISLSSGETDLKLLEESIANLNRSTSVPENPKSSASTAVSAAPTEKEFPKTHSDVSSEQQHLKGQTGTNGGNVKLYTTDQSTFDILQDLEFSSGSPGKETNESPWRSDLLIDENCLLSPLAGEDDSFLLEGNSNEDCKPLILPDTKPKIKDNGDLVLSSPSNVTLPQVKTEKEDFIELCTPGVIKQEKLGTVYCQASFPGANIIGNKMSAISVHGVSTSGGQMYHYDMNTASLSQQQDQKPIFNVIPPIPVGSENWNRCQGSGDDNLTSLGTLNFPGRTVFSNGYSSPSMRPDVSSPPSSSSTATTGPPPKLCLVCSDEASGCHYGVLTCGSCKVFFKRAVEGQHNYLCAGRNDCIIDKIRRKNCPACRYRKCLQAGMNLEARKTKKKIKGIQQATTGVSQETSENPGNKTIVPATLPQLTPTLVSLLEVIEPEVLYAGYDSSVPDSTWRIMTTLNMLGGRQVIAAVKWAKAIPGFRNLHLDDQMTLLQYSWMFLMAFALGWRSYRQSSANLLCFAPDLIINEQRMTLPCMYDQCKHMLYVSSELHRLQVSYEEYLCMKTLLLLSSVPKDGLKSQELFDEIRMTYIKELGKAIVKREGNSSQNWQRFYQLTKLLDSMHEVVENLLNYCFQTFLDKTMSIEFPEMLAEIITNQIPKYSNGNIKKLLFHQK
Experimental: Glucocorticoid Receptor Binding Assay (Method 1):
A549 human lung epithelial cells (ATCC) are grown at a scale where gram quantity cell pellets are obtained. Harvested cell pellets are washed twice in cold phosphate buffered saline, centrifuged, and resuspended in cold assay binding buffer. The assay binding buffer consists of 10% glycerol, 50 mM Tris-HCl (pH7.2), 75 mM sodium chloride, 1.5 mM magnesium chloride, 1.5 mM EDTA, and 10 mM sodium molybdate. Cell suspensions were lysed via sonication, centrifuged, and the “extract” supernatant is snap frozen and stored at −80 C until needed.
Incubations are carried out at 4 degrees Celsius for 16 hours. After incubation, 70 ul of 3× dextran-coated charcoal solution is added to each reaction, mixed, and incubated for 8 minutes at RT. 3×-dextran-coated charcoal solution consists of 250 ml assay binding buffer, 3.75 g Norit A charcoal (Sigma), and 1.25 g dextran T-70 (Amersham). Charcoal/unbound radioligand complexes are removed by centrifugation of the plate and 140 ul of supernatant from each well is transferred to another 96 well Optiplate (Packard Instruments). 200 ul of Microscint-20 scinillant (Packard Instruments) is added to each well and amount of receptor bound radioligand is determined using Packard Instruments TopCount instrument.

SMILES | Ki (human MR) [nM] | Ki (glucocorticoid receptor) [nM]
CCC(CC)(c1ccc([S@+](C)[O-])cc1)c1c[nH]c2c(NS(C)(=O)=O)cccc12 (stereo in doubt) [Example 49, N-{3-[1-Ethyl-1-(4-methanesulfinyl-phenyl)-propyl]-1H-indol-7-yl}-methanesulfonamide] | < 500 | < 500
CCS(=O)(=O)Nc1cccc2c([C@](C)(c3ccc(F)cc3F)C3CC3)c[nH]c12 (stereo in doubt) [Example 126, Ethanesulfonic acid {3-[1-cyclopropyl-1-(2,4-difluoro-phenyl)-ethyl]-1H-indol-7-yl}-amide] | < 500 | 
CCCC(C)(c1ccc(C)cc1)c1c[nH]c2c(NS(C)(=O)=O)cccc12 (stereo not drawn) [Example 1, N-[3-(1-Methyl-1-p-tolyl-butyl)-1H-indol-7-yl]methane sulfonamide] | < 500 | < 500
CCC(CC)(c1cc2ccccc2o1)c1c[nH]c2c(NS(C)(=O)=O)cccc12 [Example 2, N-[3-(1-Benzofuran-2-yl-1-ethyl-propyl)-1H-indol-7-yl]-methanesulfonamide] | < 500 | < 500
CCC(CC)(c1cc2cccc(OC)c2o1)c1c[nH]c2c(NS(C)(=O)=O)cccc12 [Example 4, N-{3-[1-Ethyl-1-(7-methoxy-benzofuran-2-yl)-propyl]-1H-indol-7-yl}-methanesulfonamide] | < 500 | < 500
CC(C)(c1ccccc1-c1ccccc1)c1c[nH]c2c(NS(C)(=O)=O)cccc12 [Example 34, N-[3-(1-Biphenyl-2-yl-1-methyl-ethyl)-1H-indol-7-yl]-methanesulfonamide] | < 500 | 
CCC(COC)(c1ccccc1)c1c[nH]c2c(NS(C)(=O)=O)cccc12 (stereo not drawn) [Example 74, N-[3-(1-Methoxymethyl-1-phenyl-propyl)-1H-indol-7-yl]-methanesulfonamide] | < 500 | 
COc1cc(C(C)(c2c[nH]c3c(NS(C)(=O)=O)cccc23)C2CC2)ccc1F (stereo not drawn) [Example 125, N-{3-[1-Cyclopropyl-1-(4-fluoro-3-methoxy-phenyl)-ethyl]-1H-indol-7-yl}-methanesulfonamide] | < 500 | 
CC(c1ccc(F)cc1)(c1c[nH]c2c(NS(C)(=O)=O)cccc12)C1CCC1 (stereo not drawn) [Example 127, N-{3-[1-Cyclobutyl-1-(4-fluoro-phenyl)-ethyl]-1H-indol-7-yl}-methanesulfonamide] | < 500 | 
CCC(CC)(c1ccc2c(c1)OCCO2)c1c[nH]c2c(NS(C)(=O)=O)cccc12 [Example 128, N-{3-[1-(2,3-Dihydro-benzo[1,4]dioxin-6-yl)-1-ethyl-propyl]-1H-indol-7-yl}-methanesulfonamide] | < 500 | 
CC(c1ccc2c(c1)OCCO2)(c1c[nH]c2c(NS(C)(=O)=O)cccc12)C1CC1 (stereo not drawn) [Example 129, N-{3-[1-Cyclopropyl-1-(2,3-dihydro-benzo[1,4]dioxin-6-yl)-ethyl]-1H-indol-7-yl}-methanesulfonamide] | < 500 | 
CC(c1ccc2c(c1)OCO2)(c1c[nH]c2c(NS(C)(=O)=O)cccc12)C1CC1 (stereo not drawn) [Example 131, N-[3-(1-Benzo[1,3]dioxol-5-yl-1-cyclopropyl-ethyl)-1H-indol-7-yl]-methanesulfonamide] | < 500 | 
CCC(CC)(c1ccc2c(c1)OCCO2)c1c[nH]c2c(NS(=O)(=O)CC)cccc12 [Example 133, N-{3-[1-(2,3-Dihydro-benzo[1,4]dioxin-6-yl)-1-ethyl-propyl]-1H-indol-7-yl}-ethanesulfonamide] | < 500 | 
CCC(CC)(c1ccc2ccn(C(C)=O)c2c1)c1c[nH]c2c(NS(C)(=O)=O)cccc12 [Example 183] | < 500 | 
CCC(CC)(c1cccc2oc(C)cc12)c1c[nH]c2c(NS(C)(=O)=O)cccc12 [Example 184] | < 500 | 

Next, values leading:

Ki (human MR) [nM] | Ki (glucocorticoid receptor) [nM] | SMILES
< 500 | < 500 | CCC(CC)(c1ccc2c(c1)CCO2)c1c[nH]c2c(NS(C)(=O)=O)cccc12 [Example 3, N-{3-[1-(2,3-Dihydro-benzofuran-5-yl)-1-ethyl-propyl]-1H-indol-7-yl}-methanesulfonamide]
< 500 |  | COc1ccc(C(C)(c2c[nH]c3c(NS(C)(=O)=O)cccc23)C2CC2)cc1F (stereo not drawn) [Example 123]
< 500 |  | COc1cc(C(C)(c2c[nH]c3c(NS(C)(=O)=O)cccc23)C2CC2)ccc1Cl (stereo not drawn) [Example 124, N-{3-[1-(4-Chloro-3-methoxy-phenyl)-1-cyclopropyl-ethyl]-1H-indol-7-yl}-methanesulfonamide]
< 500 |  | CCC(CC)(c1ccc2cc(C)oc2c1)c1c[nH]c2c(NS(C)(=O)=O)cccc12 [Example 188]
< 500 |  | C[C@](c1ccc2c(c1)OCCO2)(c1c[nH]c2c(NS(C)(=O)=O)cccc12)C1CC1 [Example 194]
< 500 |  | CCC(CC)(c1ccc2sc(NC(C)=O)nc2c1)c1c[nH]c2c(NS(C)(=O)=O)cccc12 [Example 196]
< 500 |  | CCC(CC)(c1ccc2c(c1)nc(C)n2C)c1c[nH]c2c(NS(C)(=O)=O)cccc12 [Example 198]
